Measurements from PMC6976569, “Structural basis of subtype-selective competitive antagonism for GluN2C/2D-containing NMDA receptors” (Nature Communications, 2020).

Molecular target: T1, GluN1-4a/GluN2D Met763Lys/Lys766Arg NMDARs (Rattus norvegicus, UniProt Q62645, K766R/M763K)
T1 construct: expressed in transfected cells; host or cells: Xenopus laevis oocytes injected with cRNA
Test: TEVC electrophysiology on oocytes expressing GluN1-4a/GluN2D Met763Lys/Lys766Arg
Format: cell-based
Conditions: Ki mutant relative to Ki GluN2D (WT)
Source text: To test the validity of the structural observation for the critical involvement of the methionine/lysine residue combination (GluN2D-Met763/Lys766, and GluN2A-4m-Met738/Lys741) in preferential binding of UBP791 to GluN2D over GluN2A, we conducted site-directed mutagenesis and assessed inhibition potencies of the mutant channels by TEVC. Specifically, we converted the GluN2D residues to the equivalent ones in the GluN2A subunit and measured macroscopic currents of the GluN1-4a/GluN2D mutant NMDARs.
Plasmids (pSP or pCI_NEO) harboring rat GluN1 or GluN2 full-length subunits were linearized by restriction digestion and transcribed according to the manufacturer’s instructions (mMESSAGE mMachine SP6 or T7 kit, ThermoFisher Scientific). Recombinant rat GluN1-4a and GluN2 were expressed by co-injecting cRNA at a 1:2 (w/w) ratio into defolliculated X. laevis oocytes (amounts varied from 0.05–25 ng per oocyte). Two-electrode voltage-clamp recordings were performed 1–3 days after injection using agarose-tipped microelectrodes (0.4–1.2 MΩ) filled with 3 M KCl at a holding potential of −60 mV. The bath solution contained 5 mM HEPES, 100 mM NaCl, 0.3 mM BaCl2, 10 mM Tricine, at pH 7.4 (adjusted with KOH). […] For the statistical evaluation, we implemented pairwise F-tests to test variances, and then performed the Student t test with equal or unequal variances as determined previously, and accounted for multiple testing with the Bonferroni correction.

T1 sequence (Q62645 28-1323 M763K/K766R, other chains not shown): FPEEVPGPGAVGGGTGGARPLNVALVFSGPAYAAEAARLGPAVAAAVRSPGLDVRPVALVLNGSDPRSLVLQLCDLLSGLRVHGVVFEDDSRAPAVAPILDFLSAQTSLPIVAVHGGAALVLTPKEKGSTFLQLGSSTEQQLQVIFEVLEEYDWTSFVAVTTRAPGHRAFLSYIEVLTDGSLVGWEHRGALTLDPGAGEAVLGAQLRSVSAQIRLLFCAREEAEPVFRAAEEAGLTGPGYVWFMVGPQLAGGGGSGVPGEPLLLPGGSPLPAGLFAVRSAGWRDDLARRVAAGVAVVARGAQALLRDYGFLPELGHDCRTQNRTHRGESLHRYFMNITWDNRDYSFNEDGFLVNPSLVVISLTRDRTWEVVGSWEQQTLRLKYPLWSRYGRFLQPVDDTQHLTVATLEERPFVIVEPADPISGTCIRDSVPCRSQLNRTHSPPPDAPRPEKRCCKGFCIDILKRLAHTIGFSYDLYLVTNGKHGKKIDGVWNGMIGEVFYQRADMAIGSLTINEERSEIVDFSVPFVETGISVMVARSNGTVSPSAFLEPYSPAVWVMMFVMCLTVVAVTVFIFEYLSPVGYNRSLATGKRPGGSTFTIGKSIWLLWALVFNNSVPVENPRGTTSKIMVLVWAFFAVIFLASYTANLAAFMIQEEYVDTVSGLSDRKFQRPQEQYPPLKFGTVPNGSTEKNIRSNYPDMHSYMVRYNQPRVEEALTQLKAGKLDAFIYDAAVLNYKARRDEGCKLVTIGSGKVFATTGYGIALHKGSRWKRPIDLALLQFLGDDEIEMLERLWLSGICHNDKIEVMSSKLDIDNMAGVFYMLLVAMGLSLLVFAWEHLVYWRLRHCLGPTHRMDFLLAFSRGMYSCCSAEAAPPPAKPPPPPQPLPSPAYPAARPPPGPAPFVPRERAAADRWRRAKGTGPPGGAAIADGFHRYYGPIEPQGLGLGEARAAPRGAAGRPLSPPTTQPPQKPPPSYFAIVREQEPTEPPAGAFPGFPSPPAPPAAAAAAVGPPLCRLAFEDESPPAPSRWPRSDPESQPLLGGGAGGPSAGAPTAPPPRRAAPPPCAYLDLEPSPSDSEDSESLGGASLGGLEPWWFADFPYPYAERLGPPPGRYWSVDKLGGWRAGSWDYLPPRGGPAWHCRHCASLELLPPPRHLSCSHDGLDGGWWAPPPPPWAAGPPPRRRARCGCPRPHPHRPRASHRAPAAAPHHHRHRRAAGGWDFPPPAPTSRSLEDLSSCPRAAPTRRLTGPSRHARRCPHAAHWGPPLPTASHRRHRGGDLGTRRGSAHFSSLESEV

Question: How did the “fold difference of Ki vs. 2D (WT) (2D-M763K/K766R)” value turn out when `O=C(O)CCc1ccc2c(ccc3cc(C(=O)N4CCN[C@@H](C(=O)O)[C@H]4C(=O)O)ccc32)c1` (relative stereo) [UBP791, (2S*,3R*)-1-(7-(2-carboxyethyl)phenanthrene-2-carbonyl)piperazine-2,3-dicarboxylic acid] was run?
Answer: 13 fold
